Results reported in patent US20080008716A1, “Combined Pharmaceutical Composition Comprising an Anti-4-1BB Monoclonal Antibody and Chemotherapeutic Anti-Cancer Agent for Preventing and Treating Cancer Disease” (ULSAN INDUSTRIAL EDUCATION FOUNDATION, priority 2006, published 2008).

What was measured:
[1] = test system: B16F10 melanoma cell; assay: Anticancer effect of anti-4-1BB antibody combined with other chemotherapeutic anti-cancer agents; tumor size and survival; settings: for growth rate of cancer tissue / survival rate of mice / anticancer effect / activity: given simultaneously with B16F10, FIG. 3; for growth rate of cancer tissue: chemotherapeutic once (Cis 50 or 200 μg, 5-FU 800 or 10,000 μg, irinotecan 2 mg, paclitaxel 200 or 500 μg i.p.; Doxo 200 or 400 μg i.v.), antibody 100 μg, vs rat IgG control; for survival rate of mice / anticancer effect / activity: same doses as E16
Experimental: 4×10^5 cells of B16F10 melanoma cell were injected to the back of C57BL/6 mice to occur tumor in a similar method in
At the same time, 100 μg of anti-4-1BB monoclonal antibody and/or 50 or 200 μg of cisplatin, 800 or 10,000 μg of 5-fluorouracil (5-FU), 2 mg of irinotecan and 200 or 500 μg of paclitaxel (Taxel) were intraperitoneally injected into the mice once respectively and the anti-4-1BB monoclonal antibody was further injected into the peritoneal cavity at 6 times per every 5 days. 100 μg of anti-4-1BB monoclonal antibody and/or 200 or 400 μg of Doxorubicin (Doxo) were injected into the vein and an anti-4-1BB monoclonal antibody was injected into the peritoneal cavity at 6 times per every 5 days. The size of tumor and the survival rates of the mice were analyzed during the test period (See FIG. 3).

[2] = test system: draining lymph node cell (CD4 and CD8 T cells); assay: Lymphocyte repopulation: cell number, CD4 and CD8 T cells in draining lymph node of tumor-bearing mice; format: in vivo, C57BL/6 mice
Experimental: The ratio of immune cell in each sample was analyzed with FACScan (BD Bioscience, USA), and the number of infiltrated CD4+ CD8+ T cells in tumor tissue was calculated by following Math FIG. 1
Accordingly, it was anticipated that the sustainable treatment effect of cancer by the combined treatment with CTX and anti-4-1BB antibody would be involved in the repopulation of T cell showing anticancer activity.

[3] = test system: IFN-γ; assay: IFN-γ expression of CD4 and CD8 T cells of draining lymph node (intracellular staining, FACScan); settings: 17th day after treating, FIG. 5a
Experimental: At 1st, 2nd, 4th, 8th, 12th, 16th, 20th, 24th days after the injection, the closest draining lymph node (inguinal lymph node) to tumor tissue in each group was isolated from the mice to determine the expression of IFN-γ (Kim Y H et al., Cell. Immunol., 238(2), pp 76˜86, 2005). To stain the IFN-γ cytokine in cell, lymph-node cell suspension was prepared from each group and the separated cells were cultured in culture medium containing Brefeldin A (BD Bioscience, USA) for 6 hours after treating with 50 ng/ml of PMA and 500 mg/ml of Ionomycin (Sigma, USA). […] The cells was then stained with anti-IFN-γ-PE (eBioscience, USA) using by Cytofix/cytoperm (BD Pharmingen, USA) with the manual of manufacturing company and analyzed with FACScan (BD Bioscience, USA).
3 mg of CTX and/or 100 μg of anti-4-1BB antibody were treated to the tumor-injected mice once and the cell was separated from the experimental group at 17th day when the cell started to launch the repopulation after treating with CTX and at 22nd day when the repopulation of the cell in lymph node was enough and the expression of IFN-γ was analyzed with FACScan (BD Bioscience, USA) with the method disclosed in Example 3.

[4] = test system: B16F10 melanoma cell
Experimental: (§1) C57BL/6 male mice (Harlan Laboratories, Indianapolis, Ind.) were used as an experiment animal. The mice had been bred allowing freely accessible to water and feed and maintaining the temperature to 21±2° C. in 12 hours of light/dark cycle before use in test. B16F10(ATCC CRL-6475, USA), a melanoma cell line of mouse, was cultured in DMEM medium (Dulbeco's modified eagle's medium, GIBCO BRL, USA) containing 10% FBS (Fetal Bovine Serum; Gibco BRL, NY), 2 mM L-glutamine, 100 U/l penicillin (Invitrogen, USA) and 100 μg/ml streptomycin (Invitrogen, USA).
(§2) 4×10^5 cells of B16F10 melanoma cell were subcutaneously injected to the back of mice to occur tumor. At the same time, 100 μg of anti-4-1BB monoclonal antibody and 3 mg of CTX were intraperitoneally injected into the mice and the antibody was further injected thereto at the interval of five days. […] The size and survival rate of the mice were periodically determined.
3 mg of CTX were injected into the peritoneal cavity of the mice at 5th days and 10th days after injecting cancer cells, anti 4-1BB antibody was injected into the peritoneal cavity at 6 times per every 5 days from 5th days or 10th days after injecting cancer cells.

[5] = test system: B16F10 melanoma cell; remark: listed apart in the source
Experimental: as §1, §2
At the same time, 100 μg of anti-4-1BB monoclonal antibody and 3 mg of CTX were intraperitoneally injected to the mice once and anti-4-1BB monoclonal antibody was injected into the peritoneal cavity at 6 times per every 5 days. The tumor size and the survival rates of mice were analyzed during the test period (See FIG. 1)

Question: What does the source list for `O=c1[nH]cc(F)c(=O)[nH]1` [5-FU, 5-fluorouracil]?
Answer: growth rate of cancer tissue [1]: decreased in a dose dependent manner; survival rate of mice [1]: increased

Question: `O=P1(N(CCCl)CCCl)NCCCO1` (stereo not drawn) [CTX, cyclophosphamide] was tested. Which “number of cell in lymph node” value ([2]; B16F10-bearing mice, FIG. 4a) did it give?
Answer: temporarily been decreased

Question: And the “time after injecting cancer cell at which number of cell in lymph node increased” value ([2]; B16F10-bearing mice, FIG. 4a)?
Answer: around 16 days

Question: And the “level of lymph node cell number comparing with mice treated with rat IgG or anti-4-1BB” value ([2]; after recovery of the cell number)?
Answer: less than ½ to ⅕

Question: And the “day after which number of CD4 and CD8 T cell was recovered to normal range” value ([2]; draining lymph node)?
Answer: > 14 days

Question: And the “number of CD4 and CD8 T cell” value ([2]; draining lymph node, FIG. 4b, 4c)?
Answer: decreased

Question: And the “IFN-γ expression of T cell” value [3]?
Answer: 2 to 3%

Question: What about the anti-cancer activity ([4]; treatment at 5th day after injecting cancer cell) of the same molecule?
Answer: did not show any effect on the anti-cancer activity

Question: And the growth of tumor ([4]; treatment from 10th day after injecting cancer cells, FIG. 2c)?
Answer: did not show any change

Question: And the survival of mice ([4]; treatment from 10th day after injecting cancer cells, FIG. 2d)?
Answer: did not show any change

Question: What about the “growing rate of tumor / growth of cancer” value ([5]; treatment at the same time as 4×10^5 B16F10 cells, 100 μg antibody i.p. 6 times per every 5 days, 3 mg CTX i.p. once, FIG. 1) of the same molecule?
Answer: potent inhibiting effect on the growth of cancer

Question: And the “day after injecting cancer cells until which tumor size was not increased” value ([5]; treatment at the same time as B16F10 injection)?
Answer: 30 days

Question: And the “survival of mice extended for” value ([5]; treatment at the same time as B16F10 injection, versus mice injected with only B16F10 (all died around 30th day))?
Answer: 20 days

Question: What does the source list for `COc1cccc2c1C(=O)c1c(O)c3c(c(O)c1C2=O)C[C@@](O)(C(=O)CO)C[C@@H]3O[C@H]1C[C@H](N)[C@H](O)[C@H](C)O1` [Doxorubicin]?
Answer: growth rate of cancer tissue [1]: had been decreased; anticancer effect / activity [1]: strong anticancer effect in a dose dependent manner; survival rate of mice [1]: remarkably increased

Question: With `CCc1c2c(nc3ccc(OC(=O)N4CCC(N5CCCCC5)CC4)cc13)-c1cc3c(c(=O)n1C2)COC(=O)[C@]3(O)CC` [Irinotecan, irinotecan] as the molecule, how does the “time within which most of mice died” value ([1]; 2 mg irinotecan i.p. once) read?
Answer: ≤ 30 days

Question: What about the “anticancer effect / activity” value [1] of the same molecule?
Answer: strong anticancer effect in a dose dependent manner

Question: `CC(=O)O[C@H]1C(=O)[C@@]2(C)[C@H]([C@H](OC(=O)c3ccccc3)[C@]3(O)C[C@H](OC(=O)[C@H](O)[C@@H](NC(=O)c4ccccc4)c4ccccc4)C(C)=C1C3(C)C)[C@]1(OC(C)=O)CO[C@@H]1C[C@@H]2O` [Paclitaxel, paclitaxel] was tested. Which “growth rate of cancer tissue” value [1] did it give?
Answer: slightly slowed

Question: What about the “anticancer effect / activity” value [1] of the same molecule?
Answer: a little lower inhibiting effect of the growth of B16-F10 melanoma comparing with other anticancer agents

Question: What about the “survival rate of mice” value [1] of the same molecule?
Answer: slightly increased

Question: How did the “growth rate of cancer tissue” value [1] turn out when `N.N.[Cl][Pt][Cl]` [cisplatin] was run?
Answer: decreased in a dose dependent manner

Question: What about the “survival rate of mice” value [1] of the same molecule?
Answer: partly increased
